Data on three molecules can be found in ChEMBL document CHEMBL1833850, “Thailandepsins: bacterial products with potent histone deacetylase inhibitory activities and broad-spectrum antiproliferative activities” (J Nat Prod, 2011).

The target in experiment [1] is Histone deacetylase 1/Nuclear receptor corepressor 2 (Homo sapiens, UniProt Q13547). Briefly: Inhibition of recombinant human HDAC1/NCOR2 using Boc-L-Lys(epsilon-acetyl)-AMC as substrate by two-step fluorogenic assay. The class given is protein-complex assay.
In experiment [2] the target is Histone deacetylase 4 (Homo sapiens, UniProt P56524).
The target in experiment [3] is Histone deacetylase 9 (Homo sapiens, UniProt Q9UKV0).
Experiment [4] has as its target T1, Histone deacetylase 7 (Homo sapiens, UniProt Q8WUI4).
T1 sequence (Q8WUI4 whole entry): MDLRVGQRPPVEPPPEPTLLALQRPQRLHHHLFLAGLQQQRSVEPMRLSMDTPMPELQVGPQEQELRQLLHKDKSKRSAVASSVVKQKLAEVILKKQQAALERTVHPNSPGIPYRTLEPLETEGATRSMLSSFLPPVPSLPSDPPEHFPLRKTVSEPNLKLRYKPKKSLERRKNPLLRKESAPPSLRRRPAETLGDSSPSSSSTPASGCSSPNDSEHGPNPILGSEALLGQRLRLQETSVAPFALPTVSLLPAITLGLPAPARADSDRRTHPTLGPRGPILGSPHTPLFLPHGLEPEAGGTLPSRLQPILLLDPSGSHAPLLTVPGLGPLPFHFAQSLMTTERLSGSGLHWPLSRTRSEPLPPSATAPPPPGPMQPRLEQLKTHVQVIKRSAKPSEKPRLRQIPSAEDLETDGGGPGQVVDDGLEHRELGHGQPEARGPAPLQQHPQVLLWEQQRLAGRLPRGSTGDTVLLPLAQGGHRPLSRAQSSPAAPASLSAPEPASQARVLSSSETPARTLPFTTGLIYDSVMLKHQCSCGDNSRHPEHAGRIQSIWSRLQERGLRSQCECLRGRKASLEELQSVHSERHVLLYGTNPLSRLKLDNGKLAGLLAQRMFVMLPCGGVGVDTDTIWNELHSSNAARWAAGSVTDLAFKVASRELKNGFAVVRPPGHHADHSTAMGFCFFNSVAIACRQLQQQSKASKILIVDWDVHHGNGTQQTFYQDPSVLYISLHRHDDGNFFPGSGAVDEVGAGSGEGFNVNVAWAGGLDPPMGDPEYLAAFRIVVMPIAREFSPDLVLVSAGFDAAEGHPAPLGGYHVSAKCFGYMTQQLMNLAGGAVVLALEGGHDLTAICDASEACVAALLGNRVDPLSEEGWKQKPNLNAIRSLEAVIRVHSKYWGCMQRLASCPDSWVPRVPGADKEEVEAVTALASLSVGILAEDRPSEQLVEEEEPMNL
Description: Inhibition of recombinant human HDAC7 using Boc-L-Lys(epsilon-trifluoroacetyl)-AMC as substrate by two-step fluorogenic assay

The target of experiment [5] is Histone deacetylase 2/Nuclear receptor corepressor 2 (Homo sapiens, UniProt Q92769). Briefly: Inhibition of recombinant human HDAC2/NCOR2 using Boc-L-Lys(epsilon-acetyl)-AMC as substrate by two-step fluorogenic assay. The class given is protein-complex assay.
Experiment [6] deals with Histone deacetylase 3/Nuclear receptor corepressor 2 (HDAC3/NCoR2) (Homo sapiens, UniProt O15379). The class given is protein-complex assay.
Experiment [7] concerns the target T2, Protein deacetylase HDAC6 (Homo sapiens, UniProt Q9UBN7).
T2 sequence (Q9UBN7 whole entry): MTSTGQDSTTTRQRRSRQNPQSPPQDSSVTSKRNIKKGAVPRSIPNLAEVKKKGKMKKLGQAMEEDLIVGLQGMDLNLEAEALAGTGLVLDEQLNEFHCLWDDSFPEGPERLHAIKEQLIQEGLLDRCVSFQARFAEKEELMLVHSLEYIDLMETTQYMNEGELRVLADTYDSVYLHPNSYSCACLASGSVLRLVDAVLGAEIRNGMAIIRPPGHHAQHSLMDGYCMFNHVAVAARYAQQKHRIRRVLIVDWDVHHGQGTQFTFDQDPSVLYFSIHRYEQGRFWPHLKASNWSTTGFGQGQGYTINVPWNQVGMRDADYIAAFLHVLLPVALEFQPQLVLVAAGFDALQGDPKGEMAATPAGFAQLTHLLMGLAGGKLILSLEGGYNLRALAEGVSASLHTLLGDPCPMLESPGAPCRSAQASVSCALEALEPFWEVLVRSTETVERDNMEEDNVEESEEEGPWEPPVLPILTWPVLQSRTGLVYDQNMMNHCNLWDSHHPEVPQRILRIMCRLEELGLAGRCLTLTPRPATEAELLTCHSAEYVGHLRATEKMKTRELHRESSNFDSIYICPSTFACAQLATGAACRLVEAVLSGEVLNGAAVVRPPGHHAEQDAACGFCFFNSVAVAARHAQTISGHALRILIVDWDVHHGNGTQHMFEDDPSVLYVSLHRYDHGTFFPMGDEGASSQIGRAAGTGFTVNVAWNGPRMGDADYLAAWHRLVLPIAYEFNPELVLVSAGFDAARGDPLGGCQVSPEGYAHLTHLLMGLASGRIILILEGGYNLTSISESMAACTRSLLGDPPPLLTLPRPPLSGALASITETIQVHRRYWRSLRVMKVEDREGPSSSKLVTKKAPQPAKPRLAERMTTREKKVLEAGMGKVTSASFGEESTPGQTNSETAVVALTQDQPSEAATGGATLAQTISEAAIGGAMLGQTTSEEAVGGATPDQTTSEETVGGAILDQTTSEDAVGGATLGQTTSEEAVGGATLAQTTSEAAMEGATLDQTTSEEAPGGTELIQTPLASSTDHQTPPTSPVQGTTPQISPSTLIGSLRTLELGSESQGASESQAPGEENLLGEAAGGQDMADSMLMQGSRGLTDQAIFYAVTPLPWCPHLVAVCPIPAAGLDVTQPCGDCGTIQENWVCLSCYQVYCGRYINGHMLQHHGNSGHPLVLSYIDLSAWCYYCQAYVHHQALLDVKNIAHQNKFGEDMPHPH
Briefly: Inhibition of recombinant human HDAC6 using Boc-L-Lys(epsilon-acetyl)-AMC as substrate by two-step fluorogenic assay.

The target in experiment [8] is T3, Histone deacetylase 8 (Homo sapiens, UniProt Q9BY41).
T3 sequence (Q9BY41 whole entry): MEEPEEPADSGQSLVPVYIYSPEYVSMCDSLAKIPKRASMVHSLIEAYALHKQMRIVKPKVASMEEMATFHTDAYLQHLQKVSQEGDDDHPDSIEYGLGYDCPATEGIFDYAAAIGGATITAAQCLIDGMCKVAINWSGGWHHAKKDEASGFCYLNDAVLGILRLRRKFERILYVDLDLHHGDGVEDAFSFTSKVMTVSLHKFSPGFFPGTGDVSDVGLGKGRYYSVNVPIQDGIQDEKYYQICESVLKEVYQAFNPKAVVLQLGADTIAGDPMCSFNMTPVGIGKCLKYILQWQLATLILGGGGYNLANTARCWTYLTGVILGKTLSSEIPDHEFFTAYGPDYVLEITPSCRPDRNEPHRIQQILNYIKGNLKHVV

Some results are limits rather than exact numbers.

Chain of Histone deacetylase 4 (P56524 whole entry): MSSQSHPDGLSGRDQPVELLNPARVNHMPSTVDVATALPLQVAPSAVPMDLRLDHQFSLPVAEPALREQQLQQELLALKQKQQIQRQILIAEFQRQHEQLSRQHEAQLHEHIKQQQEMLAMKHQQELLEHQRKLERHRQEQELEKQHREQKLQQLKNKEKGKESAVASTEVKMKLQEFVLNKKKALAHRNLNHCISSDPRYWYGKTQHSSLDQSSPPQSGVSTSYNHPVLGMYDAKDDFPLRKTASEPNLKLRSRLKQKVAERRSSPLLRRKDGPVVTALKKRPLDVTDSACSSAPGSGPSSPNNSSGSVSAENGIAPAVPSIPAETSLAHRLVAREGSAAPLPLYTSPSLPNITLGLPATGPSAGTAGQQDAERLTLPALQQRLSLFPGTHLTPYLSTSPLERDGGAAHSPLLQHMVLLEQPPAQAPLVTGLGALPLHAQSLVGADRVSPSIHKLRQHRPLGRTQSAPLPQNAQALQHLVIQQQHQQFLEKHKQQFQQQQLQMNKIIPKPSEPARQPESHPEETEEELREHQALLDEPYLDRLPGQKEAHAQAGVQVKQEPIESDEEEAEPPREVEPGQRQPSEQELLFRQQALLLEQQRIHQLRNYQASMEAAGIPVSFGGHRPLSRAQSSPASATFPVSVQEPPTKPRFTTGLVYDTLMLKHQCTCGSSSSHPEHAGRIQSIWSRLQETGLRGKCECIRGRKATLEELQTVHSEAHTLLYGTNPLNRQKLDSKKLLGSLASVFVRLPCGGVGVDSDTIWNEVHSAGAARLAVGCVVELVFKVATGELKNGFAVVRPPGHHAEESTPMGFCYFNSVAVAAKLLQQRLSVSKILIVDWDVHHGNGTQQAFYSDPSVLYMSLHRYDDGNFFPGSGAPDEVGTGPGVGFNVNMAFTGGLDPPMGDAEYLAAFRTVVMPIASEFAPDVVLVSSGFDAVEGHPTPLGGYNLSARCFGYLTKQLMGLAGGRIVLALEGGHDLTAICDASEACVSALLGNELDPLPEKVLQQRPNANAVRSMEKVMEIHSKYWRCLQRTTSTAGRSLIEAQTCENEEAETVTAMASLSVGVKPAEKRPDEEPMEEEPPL
Chain of Histone deacetylase 1/Nuclear receptor corepressor 2 (Q13547 whole entry): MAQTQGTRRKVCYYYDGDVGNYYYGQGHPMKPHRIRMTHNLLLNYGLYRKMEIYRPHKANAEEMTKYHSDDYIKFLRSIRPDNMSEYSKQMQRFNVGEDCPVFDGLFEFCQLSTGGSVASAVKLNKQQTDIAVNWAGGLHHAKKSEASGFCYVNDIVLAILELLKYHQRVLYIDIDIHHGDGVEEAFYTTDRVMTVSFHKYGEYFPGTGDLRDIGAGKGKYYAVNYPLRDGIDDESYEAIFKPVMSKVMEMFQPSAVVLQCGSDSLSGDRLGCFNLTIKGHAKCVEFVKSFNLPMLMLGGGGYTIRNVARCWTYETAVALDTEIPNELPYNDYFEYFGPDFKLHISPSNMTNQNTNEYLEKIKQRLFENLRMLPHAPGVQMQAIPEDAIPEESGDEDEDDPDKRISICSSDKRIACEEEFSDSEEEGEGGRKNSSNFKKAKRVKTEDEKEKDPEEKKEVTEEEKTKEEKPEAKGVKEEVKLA
Chain of Histone deacetylase 1/Nuclear receptor corepressor 2 (Q9Y618 whole entry, further chain): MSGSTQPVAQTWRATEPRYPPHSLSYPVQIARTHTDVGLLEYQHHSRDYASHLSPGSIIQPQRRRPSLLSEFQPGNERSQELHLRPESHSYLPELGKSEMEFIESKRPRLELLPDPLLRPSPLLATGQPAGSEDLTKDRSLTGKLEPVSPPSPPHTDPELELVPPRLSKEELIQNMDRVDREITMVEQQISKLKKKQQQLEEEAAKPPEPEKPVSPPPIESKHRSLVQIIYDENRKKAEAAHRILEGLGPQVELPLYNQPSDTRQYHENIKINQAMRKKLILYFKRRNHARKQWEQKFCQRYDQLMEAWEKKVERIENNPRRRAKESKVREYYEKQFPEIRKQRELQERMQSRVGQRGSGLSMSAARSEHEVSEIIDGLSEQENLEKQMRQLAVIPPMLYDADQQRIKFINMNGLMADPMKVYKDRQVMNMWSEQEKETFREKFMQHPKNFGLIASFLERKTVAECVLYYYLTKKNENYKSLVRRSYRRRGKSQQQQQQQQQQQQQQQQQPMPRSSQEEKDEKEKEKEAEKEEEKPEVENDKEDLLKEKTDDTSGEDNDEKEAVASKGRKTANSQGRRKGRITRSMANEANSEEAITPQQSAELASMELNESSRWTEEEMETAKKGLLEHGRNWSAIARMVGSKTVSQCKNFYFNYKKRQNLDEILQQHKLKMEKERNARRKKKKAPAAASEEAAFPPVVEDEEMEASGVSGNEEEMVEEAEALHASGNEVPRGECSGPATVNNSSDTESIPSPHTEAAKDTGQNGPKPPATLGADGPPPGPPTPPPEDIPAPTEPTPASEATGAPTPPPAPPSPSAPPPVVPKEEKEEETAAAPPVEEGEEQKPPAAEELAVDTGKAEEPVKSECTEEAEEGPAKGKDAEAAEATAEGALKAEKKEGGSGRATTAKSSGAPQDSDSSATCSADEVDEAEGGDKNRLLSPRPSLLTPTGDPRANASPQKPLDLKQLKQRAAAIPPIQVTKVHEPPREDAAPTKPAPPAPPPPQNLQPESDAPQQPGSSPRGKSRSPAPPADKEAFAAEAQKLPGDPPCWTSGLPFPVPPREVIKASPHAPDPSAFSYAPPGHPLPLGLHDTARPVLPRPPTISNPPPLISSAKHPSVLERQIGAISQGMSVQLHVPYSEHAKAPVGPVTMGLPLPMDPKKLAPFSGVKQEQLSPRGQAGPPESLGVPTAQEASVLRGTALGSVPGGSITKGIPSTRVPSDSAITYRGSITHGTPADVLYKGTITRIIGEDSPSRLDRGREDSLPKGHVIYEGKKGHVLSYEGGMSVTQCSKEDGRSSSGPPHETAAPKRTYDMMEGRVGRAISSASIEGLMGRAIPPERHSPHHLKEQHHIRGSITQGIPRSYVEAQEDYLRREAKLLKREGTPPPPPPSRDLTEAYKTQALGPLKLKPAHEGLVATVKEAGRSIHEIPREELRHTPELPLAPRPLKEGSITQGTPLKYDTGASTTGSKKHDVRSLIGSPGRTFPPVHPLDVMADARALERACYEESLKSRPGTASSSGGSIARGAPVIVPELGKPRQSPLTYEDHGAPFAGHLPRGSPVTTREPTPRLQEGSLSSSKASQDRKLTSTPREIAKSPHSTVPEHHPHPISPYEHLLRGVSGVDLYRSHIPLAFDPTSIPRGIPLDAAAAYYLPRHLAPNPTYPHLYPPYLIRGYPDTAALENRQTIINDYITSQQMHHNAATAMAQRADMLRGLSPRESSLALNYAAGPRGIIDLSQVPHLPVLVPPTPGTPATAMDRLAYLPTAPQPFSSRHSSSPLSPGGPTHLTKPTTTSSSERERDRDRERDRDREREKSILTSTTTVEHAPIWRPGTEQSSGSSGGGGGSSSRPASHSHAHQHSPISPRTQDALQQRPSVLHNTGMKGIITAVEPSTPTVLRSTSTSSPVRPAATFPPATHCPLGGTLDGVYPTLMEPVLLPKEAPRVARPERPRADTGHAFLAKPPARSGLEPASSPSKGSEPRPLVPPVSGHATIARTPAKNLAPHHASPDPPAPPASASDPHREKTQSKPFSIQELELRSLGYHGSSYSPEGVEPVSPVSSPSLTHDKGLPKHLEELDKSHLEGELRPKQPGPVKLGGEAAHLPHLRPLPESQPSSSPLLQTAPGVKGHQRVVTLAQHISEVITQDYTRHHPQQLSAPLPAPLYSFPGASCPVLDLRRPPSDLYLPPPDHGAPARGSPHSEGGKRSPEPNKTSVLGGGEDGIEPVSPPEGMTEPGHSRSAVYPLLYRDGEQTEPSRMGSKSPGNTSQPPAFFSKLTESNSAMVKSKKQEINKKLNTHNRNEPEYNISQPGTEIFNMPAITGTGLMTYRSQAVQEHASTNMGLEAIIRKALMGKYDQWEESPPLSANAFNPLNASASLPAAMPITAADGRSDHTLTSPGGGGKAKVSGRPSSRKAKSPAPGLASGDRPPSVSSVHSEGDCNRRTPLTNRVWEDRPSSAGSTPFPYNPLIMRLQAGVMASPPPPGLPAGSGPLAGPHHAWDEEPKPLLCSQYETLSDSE
Chain of Histone deacetylase 9 (Q9UKV0 whole entry): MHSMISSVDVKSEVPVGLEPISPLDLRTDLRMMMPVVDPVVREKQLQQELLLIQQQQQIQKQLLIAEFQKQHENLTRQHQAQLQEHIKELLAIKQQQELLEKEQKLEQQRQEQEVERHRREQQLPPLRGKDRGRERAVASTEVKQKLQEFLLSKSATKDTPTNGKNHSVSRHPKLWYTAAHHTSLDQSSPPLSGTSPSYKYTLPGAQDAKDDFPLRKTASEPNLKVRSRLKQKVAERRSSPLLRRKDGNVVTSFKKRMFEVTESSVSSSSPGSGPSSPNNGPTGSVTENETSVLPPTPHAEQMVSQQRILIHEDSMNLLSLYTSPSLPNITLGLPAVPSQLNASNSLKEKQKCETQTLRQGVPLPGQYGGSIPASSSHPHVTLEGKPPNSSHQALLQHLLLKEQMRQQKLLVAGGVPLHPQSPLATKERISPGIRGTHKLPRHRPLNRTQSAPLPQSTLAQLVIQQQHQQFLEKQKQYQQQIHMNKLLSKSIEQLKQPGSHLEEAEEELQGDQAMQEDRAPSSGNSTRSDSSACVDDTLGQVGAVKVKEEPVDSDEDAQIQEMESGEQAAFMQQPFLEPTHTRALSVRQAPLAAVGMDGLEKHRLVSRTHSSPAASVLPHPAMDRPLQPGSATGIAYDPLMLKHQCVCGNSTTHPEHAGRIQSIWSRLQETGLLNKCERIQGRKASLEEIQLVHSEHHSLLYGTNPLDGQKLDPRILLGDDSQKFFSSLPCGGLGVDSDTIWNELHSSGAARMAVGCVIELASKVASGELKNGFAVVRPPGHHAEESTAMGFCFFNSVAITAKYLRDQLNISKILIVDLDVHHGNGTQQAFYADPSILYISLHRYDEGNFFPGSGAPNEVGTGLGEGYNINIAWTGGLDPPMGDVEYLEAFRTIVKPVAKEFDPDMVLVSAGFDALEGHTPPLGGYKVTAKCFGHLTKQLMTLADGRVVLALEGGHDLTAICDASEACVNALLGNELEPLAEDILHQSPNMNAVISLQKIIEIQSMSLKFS

One may read the IC50 as the concentration that gives 50% inhibition. `C/C=C1\NC(=O)[C@H]2CSSCC/C=C/[C@H](CC(=O)N[C@H](C(C)C)C(=O)N2)OC(=O)[C@H](C(C)C)NC1=O` [ROMIDEPSIN]: the IC50 is 6.7 µM in experiment [1], above 50 µM in experiment [2], above 50 µM in experiment [3] and above 50 µM in experiment [4].

Take `CCCC[C@H]1NC(=O)C[C@H]2/C=C/CCSSC[C@@H](NC1=O)C(=O)N[C@H]([C@@H](C)CC)[C@@H](O)CC(=O)O2` [THAILANDEPSIN B]: the IC50 came to 7.7 µM in experiment [1]; 4.5 µM in experiment [5]; 0.023 µM in experiment [6]; 22 µM in experiment [2]; 11 µM in experiment [7]; 30 µM in experiment [8]. Further, the IC50 in experiment [3] is above 50 µM.

For the molecule `CC[C@H](C)[C@H]1NC(=O)[C@H]2CSSCC/C=C/[C@H](CC(=O)N[C@H](CCSC)C(=O)N2)OC(=O)C[C@@H]1O` [THAILANDEPSIN A], the IC50 was 7.5 µM in experiment [1]; 39 µM in experiment [5]; 0.087 µM in experiment [6]; above 50 µM in experiment [2]; 9.9 µM in experiment [7]; above 50 µM in experiment [8]. For the same molecule, the IC50 in experiment [3] and in experiment [4] was above 50 µM each time.
